Assay results published in patent publication US20070212412A1, “STABLE SOLID FORMULATION OF SERTINDOLE” (H. Lundbeck A/S, priority 2005, published 2007).

How the values were obtained:
α1-adrenergic receptors = conditions: cited from earlier work
dopamine D2 = dopamine D2 (Homo sapiens, UniProt P14416); conditions: cited from earlier work
serotonin 5-HT2 = conditions: cited from earlier work
[1] = clinical development programme; cited from earlier work
[2] = Light stability study of film-coated sertindole tablets (HPLC degradation products); format: physicochemical; conditions: film-coated tablets with white film-coating layer containing titanium dioxide, 2-4% film-layer relative to tablet core weight
Source text: 10 tablets of each sample were placed in a light cabinet (Heraeus Suntest CPS+) and were exposed to light providing an overall illumination of not less than 1.2 million lux hours, and an integrated near ultraviolet energy of not less than 200 watt hours/m^2. The tablets were placed directly in petri dishes in a single layer. […] The dark control was placed beside the sample and was protected against light, wrapped in aluminium foil. After light exposure the tablets (sample and dark control) were analysed for degradation products by HPLC analysis.
The samples of 10 tablets were disintegrated by the means of 0.1 M acetic acid. Next acetonitrile was added for extraction and subsequently the samples were made to volume with methanol/water (50/50). Final concentration: 0.4 mg/ml.
Samples from the light stability studies were analysed by HPLC.
Reversed phase chromatography was performed using a LiChrospher 100 RP-8, 5 μm, 250×4 mm ID with pre-column: LiChrospher 100 RP-8, 5 μm.
The mobile phase consisted of Tetrahydrofurane/acetonitrile/25 mM phosphate buffer pH 7.2 (7/43/50). […]
Quantification of the degradation products was done from area %, using the normalization factor 0.9 for Lu 26-115 (1-(2-(4-(5-Chloro-1-(4-fluorophenyl)-1H-indol-3-yl)-1-piperidinyl-1-oxide)ethyl)-2-imidazolidinone) and the normalization factor 1.0 for other impurities.

Chain of dopamine D2 (P14416 whole entry): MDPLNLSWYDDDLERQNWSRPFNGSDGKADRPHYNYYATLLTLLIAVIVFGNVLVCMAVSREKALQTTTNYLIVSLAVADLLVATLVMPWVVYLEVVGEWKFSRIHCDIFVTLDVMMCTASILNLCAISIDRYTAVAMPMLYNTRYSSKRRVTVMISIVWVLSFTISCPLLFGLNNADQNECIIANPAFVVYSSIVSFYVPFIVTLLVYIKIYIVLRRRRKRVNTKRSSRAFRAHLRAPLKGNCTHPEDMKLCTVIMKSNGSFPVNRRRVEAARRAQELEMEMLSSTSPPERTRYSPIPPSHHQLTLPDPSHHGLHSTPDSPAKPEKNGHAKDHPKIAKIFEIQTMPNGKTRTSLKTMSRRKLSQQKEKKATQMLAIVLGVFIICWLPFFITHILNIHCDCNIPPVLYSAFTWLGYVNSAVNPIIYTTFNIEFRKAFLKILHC

Question: Which results are given for `O=C1NCCN1CCN1CCC(c2cn(-c3ccc(F)cc3)c3ccc(Cl)cc23)CC1` [Sertindole]?
Answer: affinity for α1-adrenergic receptors (α1-adrenergic receptors): high affinity; affinity for dopamine D2 (dopamine D2): high affinity; affinity for serotonin 5-HT2 (serotonin 5-HT2): high affinity; effect on symptoms of schizophrenia [1]: effect against both positive and negative symptoms of schizophrenia; incidence of extrapyramidal side effects [1]: placebo-level incidence; tolerability [1]: well-tolerated; light sensitivity [2]: undergoes a light-induced degradation process
